As usually defined, the Tm is the temperature at the midpoint of the melting transition. A word on the IC50: it is the concentration needed to halve the response being measured.

“And” between values parts separate entries of the source, which are not always exact repeats. Identical values can stand only once. Where only a bound is given, the exact number is not on record here.

6 compounds from patent US9920014B2, “Selective inhibition of bacterial topoisomerase I” (THE FLORIDA INTERNATIONAL BOARD OF TRUSTEES MODESTO A. …, priority 2013, dated 2018) can be followed below.

One test has as its system dA60.dT60 duplex. In words: UV thermal denaturation of AT rich DNA duplex. The format is binding. The note with it: ligand 10 μM, DNA 1 μM/duplex, 10 mM sodium cacodylate, 0.1 mM EDTA, 100 mM NaCl, pH 7.0; for ΔTm (thermal stabilization): duplex alone 62.5° C. The method, then: Nucleic acids were purchased from Integrated DNA Technologies (Coraville, Iowa). The concentration of the nucleic acid was determined using the extinction coefficient provided by the supplier. The DNA duplex was prepared by heating the dA60 and dT60 in equimolar ratio in buffer 10 mM sodium cacodylate, 0.1 mM EDTA and 100 mM NaCl at pH 7.0 at 95° C. for 15 minutes and then slowly allowing it to cool back to room temperature. After two days of incubation, the duplex formation was checked by UV thermal denaturation experiments. The stock solution was stored at 4° C. and diluted to desired concentrations as required.
Ultra Violet (UV) Thermal Denaturation Experiments:
All UV spectra were obtained on a 12 cell holder Cary 1E UV-Vis spectrophotometer equipped with temperature controller. Quartz cells with 1 cm path length were used for all the experiments. Spectrophotometer stability and wavelength alignment were checked prior to initiation of each thermal denaturation experiment. For all experiments, the samples were prepared by diluting a stock sample. The melting of DNA with and without the ligand was performed at a heating rate of 0.2° C./min. Samples were brought back to 20° C. after the experiment. All UV melting experiments were monitored at 260 nm. For the Tm determinations, derivatives were used. Data points were recorded every 1.0° C. The DNA concentration was 1 μM/duplex while the ligand concentration was 10 μM. All ligand solutions were prepared in dimethyl sulfoxide (DMSO) as concentrated stock solution (6-10 mM) and diluted to desired concentrations in buffer.
Bisbenzimidazoles are known to bind to the minor groove of AT rich DNA. The UV thermal denaturation experiments of the synthesized ligands were carried out with an AT rich DNA duplex. A 60 mer B-DNA duplex that was prepared by mixing equimolar amounts of a 60 mer homoadenine with a 60 mer homothymine polymer.

Test [1] has as its target E. coli DNA topoisomerase I (Escherichia coli, UniProt P06612). In words: Inhibition assay against E. coli DNA topoisomerase I (plasmid relaxation, agarose gel). The format is biochemical. The note with it: 6 nM enzyme; for IC50: supercoiled pBAD-GFPuv, 15 min 37° C., average of at least three determinations, read-out: IC50 ecTopo I; for concentration needed to completely inhibit the activities of E. coli DNA topoisomerase I: gel titration (FIG. 3A, 3B). As for the experimental part: Inhibition Assays Against E. coli DNA Topoisomerase I:
Inhibition assays were used to determine the activities of the newly synthesized compounds against E. coli DNA topoisomerase I. The reaction mixture (30 μl) contained 20 mM Tris-HCl at pH 7.9, 50 mM KAc, 10 mM Mg(Ac)2, 1 mM DTT, 1 μg/mL BSA, 150 ng of the supercoiled plasmid pBAD-GFPuv, 6 nM of E. coli topoisomerase I, and one of the compounds at a specified concentration that ranges from 0.5 to 45 μM. All components were assembled on ice and incubated for 15 min at 37° C. After the incubation, the reactions were terminated by extraction with an equal volume of phenol. The topological state of the DNA samples was analyzed with 1% agarose gel electrophoresis in 1×TAE buffer, pH 7.8. Following electrophoresis, the agarose gel was stained with Ethidium Bromide, destained, and photographed under UV light. The intensity of DNA topoisomers was determined using KODAK 1D Image Analysis Software. The percentage of (−) supercoiled DNA was calculated from a comparison of the intensity of the (−) supercoiled band with the total intensity of all DNA topoisomers. The IC50 was calculated as the amount of the drug for which 50% of the DNA was still in a (−) supercoiled state.

Test [2] concerns the target T1, human DNA topoisomerase I (Homo sapiens, UniProt P11387).
T1 sequence (P11387 1-765): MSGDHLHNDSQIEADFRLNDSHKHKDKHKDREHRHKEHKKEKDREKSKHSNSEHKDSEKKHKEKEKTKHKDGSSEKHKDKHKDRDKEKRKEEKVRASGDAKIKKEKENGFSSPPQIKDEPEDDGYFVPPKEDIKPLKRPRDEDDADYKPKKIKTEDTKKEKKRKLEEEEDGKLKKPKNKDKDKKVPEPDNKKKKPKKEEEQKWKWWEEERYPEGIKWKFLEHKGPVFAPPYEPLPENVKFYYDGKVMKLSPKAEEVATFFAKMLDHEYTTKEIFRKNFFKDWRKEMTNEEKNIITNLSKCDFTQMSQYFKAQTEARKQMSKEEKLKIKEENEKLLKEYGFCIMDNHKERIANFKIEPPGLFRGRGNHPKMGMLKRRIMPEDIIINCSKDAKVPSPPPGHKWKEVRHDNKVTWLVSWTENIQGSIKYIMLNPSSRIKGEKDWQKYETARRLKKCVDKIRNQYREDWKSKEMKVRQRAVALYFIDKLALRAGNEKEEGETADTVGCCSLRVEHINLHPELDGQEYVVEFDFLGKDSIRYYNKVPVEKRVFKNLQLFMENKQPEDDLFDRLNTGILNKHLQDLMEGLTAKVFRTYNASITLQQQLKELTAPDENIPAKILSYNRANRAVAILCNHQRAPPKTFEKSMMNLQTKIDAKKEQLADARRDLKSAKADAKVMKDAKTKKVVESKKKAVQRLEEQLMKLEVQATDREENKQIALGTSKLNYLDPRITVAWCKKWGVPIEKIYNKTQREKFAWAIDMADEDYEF
In words: Inhibition assay against human DNA topoisomerase I (plasmid relaxation, agarose gel). The format is biochemical. The note with it: for IC50: 2 units enzyme, supercoiled pBAD-GFPuv, 30 min 37° C., read-out: IC50 hTopo I; for supercoiled DNA template prevented from relaxation by human DNA topoisomerase I: 50 μM compound. As for the experimental part:
Inhibition Assays Against Human DNA Topoisomerase I:
The inhibition assays were used to determine the activities of the newly synthesized compounds against Human DNA topoisomerase I. The reaction mixture (25 μl) contained 20 mM Tris-HCl at pH 7.9, 50 mM KAc, 10 mM Mg(Ac)2, 1 mM DTT, 1 μg/ml BSA, 250 ng of the supercoiled plasmid pBAD-GFPuv, 2 units of Human DNA topoisomerase I, and one of the compounds at a final concentration that ranges from 5 to 50 μM. All components were assembled on ice and incubated for 30 minutes at 37° C. After the incubation, the reactions were terminated by extraction with an equal volume of phenol. The topological state of the DNA samples was analyzed with 1% agarose gel electrophoresis in 1×TAE buffer, pH 7.8. Following electrophoresis, the agarose gel was stained with Ethidium Bromide, destained, and photographed under UV light. The intensity of DNA topoisomers was determined using KODAK 1D Image Analysis Software. The percentage of (−) supercoiled DNA was calculated from a comparison of the intensity of the (−) supercoiled band with the total intensity of all DNA topoisomers. The IC50 was calculated as the amount of the drug for which 50% of the DNA was in a (−) supercoiled state.

Sequence of E. coli DNA topoisomerase I (P06612 whole entry): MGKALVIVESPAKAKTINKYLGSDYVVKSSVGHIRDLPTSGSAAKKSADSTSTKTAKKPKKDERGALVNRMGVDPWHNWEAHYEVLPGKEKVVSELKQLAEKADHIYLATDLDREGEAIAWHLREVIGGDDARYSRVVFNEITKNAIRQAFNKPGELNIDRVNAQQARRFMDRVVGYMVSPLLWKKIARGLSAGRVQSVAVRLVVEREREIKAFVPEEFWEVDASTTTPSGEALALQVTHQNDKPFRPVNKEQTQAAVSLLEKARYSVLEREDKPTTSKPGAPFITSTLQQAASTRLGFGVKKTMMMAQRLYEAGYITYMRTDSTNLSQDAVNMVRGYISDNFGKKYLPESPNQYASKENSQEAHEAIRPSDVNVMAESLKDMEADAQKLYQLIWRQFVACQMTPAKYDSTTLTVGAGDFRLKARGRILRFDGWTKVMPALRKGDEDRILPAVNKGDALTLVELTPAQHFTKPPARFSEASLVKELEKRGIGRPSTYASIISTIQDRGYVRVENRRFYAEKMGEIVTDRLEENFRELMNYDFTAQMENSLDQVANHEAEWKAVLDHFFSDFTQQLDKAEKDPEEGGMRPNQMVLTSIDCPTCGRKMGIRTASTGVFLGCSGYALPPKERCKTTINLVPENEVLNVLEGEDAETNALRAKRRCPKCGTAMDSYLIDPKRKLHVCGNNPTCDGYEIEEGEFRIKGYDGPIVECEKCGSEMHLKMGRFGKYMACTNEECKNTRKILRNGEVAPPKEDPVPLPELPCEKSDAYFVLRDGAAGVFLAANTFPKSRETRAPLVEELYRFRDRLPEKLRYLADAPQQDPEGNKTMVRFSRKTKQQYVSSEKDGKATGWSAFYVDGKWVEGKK

Regarding `C#CCCCCOc1ccc(-c2nc3ccc(-c4nc5ccc(N6CCN(C)CC6)cc5[nH]4)cc3[nH]2)cc1` [DPA 152, 2′-(4-(hex-5-ynyloxy)phenyl)-6-(4-methylpiperazin-1-yl)-1H,3′H-2,5′-bibenzo[d]imidazole], in the test on dA60.dT60 duplex, the melting temperature (Tm) was determined as 83.4 °C and the “ΔTm (thermal stabilization)” value stood at 20.9 °C. In test [1], the 50% inhibitory concentration (IC50) was determined as 4.57 ± 0.81 µM. Further, the IC50 in test [2] was greater than 50 µM.

Regarding `C#CCCCCCCCCCOc1ccc(-c2nc3ccc(-c4nc5ccc(N6CCN(C)CC6)cc5[nH]4)cc3[nH]2)cc1` [DPA 153, 6-(4-methylpiperazin-1-yl)-2′-(4-(undec-10-ynyloxy)phenyl)-1H,3′H-2,5′-bibenzo[d]imidazole], in the test with dA60.dT60 duplex, the Tm is 70.5 °C and the “ΔTm (thermal stabilization)” value came out at 8 °C. Moreover, the IC50 in test [1] came out at 2.47 ± 0.06 µM. Besides, the IC50 in test [2] was greater than 50 µM.

With `CCOc1ccc(-c2nc3ccc(-c4nc5ccc(N6CCN(C)CC6)cc5[nH]4)cc3[nH]2)cc1` [Hoechst 33342, reference compound], in the test on dA60.dT60 duplex, the midpoint of thermal melting (Tm) was found to be 86.6 °C. Further, the “ΔTm (thermal stabilization)” value with dA60.dT60 duplex is roughly 24 °C; in the test on dA60.dT60 duplex (listed as Hoechst 33242), 24.1 °C. Moreover, the 50% inhibitory concentration (IC50) was 29.8 ± 2.75 µM in test [1] and greater than 50 µM in test [2].

As for `C#CCOc1ccc(-c2nc3ccc(-c4nc5ccc(N6CCN(C)CC6)cc5[nH]4)cc3[nH]2)cc1` [DPA 151, 6-(4-methylpiperazin-1-yl)-2′-(4-(prop-2-ynyloxy)phenyl)-1H,3′H-2,5′-bibenzo[d]imidazole], in the test with dA60.dT60 duplex, the Tm amounted to 85.4 °C; the “ΔTm (thermal stabilization)” value is 22.9 °C and 23.9 °C. In test [1], the “concentration needed to completely inhibit the activities of E. coli DNA topoisomerase I” value was “approximately 5 μM” and the IC50 is 5.5 ± 0.5 µM. Moreover, in test [2], the “supercoiled DNA template prevented from relaxation by human DNA topoisomerase I” value is given as “about 70%” and the IC50 was found to be 25.4 ± 2.2 µM.

In the case of `C#CCOCCCCOc1ccc(-c2nc3ccc(-c4nc5ccc(N6CCN(C)CC6)cc5[nH]4)cc3[nH]2)cc1` [DPA 154, 6-(4-methylpiperazin-1-yl)-2′-(4-(4-(prop-2-ynyloxy)butoxy)phenyl)-1H,3′H-2,5′-bibenzo[d]imidazole], in the test with dA60.dT60 duplex, the Tm is 85.9 °C and the “ΔTm (thermal stabilization)” value worked out at 23.4 °C. Also, the IC50 in test [1] was 6.63 ± 0.47 µM. The IC50 in test [2] was greater than 50 µM.

Regarding `CN1CCN(c2ccc3[nH]c(-c4ccc5[nH]c(-c6ccc(O)cc6)nc5c4)nc3c2)CC1` [Hoechst 33258, reference compound], in the test with dA60.dT60 duplex, the Tm was 87.1 °C; the “ΔTm (thermal stabilization)” value is ~24 °C and 24.6 °C. Further, in test [1], the “concentration needed to completely inhibit the activities of E. coli DNA topoisomerase I” value was “approximately 20 μM” and the concentration for half-maximal inhibition (IC50) was found to be 19.5 ± 1.32 µM. Also, in test [2], the “supercoiled DNA template prevented from relaxation by human DNA topoisomerase I” value is “about 70%” and the IC50 was 22.9 ± 1.55 µM.
